Tests used:
[1] = Body weight and clinical observations, Pan02 syngeneic model; type: in vivo, mouse; details: for Body weight, Mean: oxaliplatin 6 mg/kg i.p. BIW, AT-0174 120 mg/kg p.o. QD Day 7-32
Description: (§1) Female C57BL/6 mice were used in the study, with ad libitum access to rodent food and water throughout the study period.
(§2) Murine pancreatic Pan02 cancer cells were cultured in a 37° C. incubator containing 5% CO2 with 10% FBS in DMEM medium. The cells were sub-cultured within 10 passages before inoculated into the mice. 1*10^6 PANC02 cells in 100 μL serum-free medium mixed with Matrigel (v/v 1:1) were subcutaneously inoculated at the right flank of each mouse under anesthetized with 2-5% isoflurane before inoculation.
Body weight: Mice body weights were measured and recorded three times per week after grouping. Animals were also weighed in the event of accidental death or near-death euthanasia.

[2] = tested on: Pan02 tumors; test: Tumor volume, mouse subcutaneous Pan02 syngeneic model of pancreatic cancer; type: in vivo; details: for tumor volume, Mean: oxaliplatin 6 mg/kg i.p. BIW, AT-0174 120 mg/kg p.o. QD Day 7-32
Description: as §1, §2
Tumor volume: The tumor volume (V) was calculated as follows: V=(length×width^2)/2. Tumor volume was measured and recorded three times per week after grouping.
The individual relative tumor volume (RTV) was calculated as follows: RTV=Vt/V0, where Vt is the volume on each day, and V0 is the volume at the beginning of the treatment.

[3] = tested on: immune cells in Pan02 tumors; test: FACS analysis of Pan02 tumors; type: in vivo, mouse; details: Day 34, oxaliplatin 6 mg/kg i.p. BIW, AT-0174 120 mg/kg p.o. QD
Description: On Day 34, all tumor-bearing mice were sacrificed, and tumors were collected for FACS analysis. FACS panels were:
Panel A: L/D, CD45, CD3, CD4, CD8, CD11b, CD25, IFN-γ, Foxp3.
Panel B: L/D, CD45, CD3, CD11b, NKG2D, F4/80.
Flow cytometry was conducted using a Beckman Cytoflex LX and antibodies from Thermofisher and Biolegend, using standard methods.

[4] = tested on: LLC (mouse Lewis lung cancer cells); test: Growth inhibition of parental LLC cells; type: cell-based; details: 24 h
Description: Cisplatin resistant mouse cell lines (LLC-CR) were derived from LLC (mouse Lewis lung cancer cells (epidermoid carcinoma), ATCC) through treatment with increasing doses of cisplatin intermittently. LLC-CR clones were maintained in half GI50 dosage concentration. […] The cultures were observed daily and allowed to grow until they reached an initial cell density. […] After the cells recovered from cisplatin toxicity, they were treated again with increasing dosage of cisplatin for 24 h. These cells are seeded at 500-1000 cells per dish and cultured for 5-7 days. Clones are selected and expanded as well as tested for cisplatin sensitivity. Similar processes of exposure are carried out for a third and fourth time to generate higher resistant clones. At the end, the resistance clones (LLC-CR) were maintained in media completed with 1 μg/ml (half GI50 dosage) of cisplatin.

[5] = tested on: LLC-CR cells; details: cited from earlier work

## O=C1[O][Pt]2([NH][C@@H]3CCCC[C@H]3[NH]2)[O]C1=O [Oxaliplatin]
[1]; Pan02, day 4
  Body weight, Mean: 21.21 g
[1]; Pan02, day 11
  Body weight, Mean: 21.10 g
[1]; Pan02, day 25
  Body weight, Mean: 23.00 g
[1]; Pan02, day 28
  Body weight, Mean: 22.00 g
[1]; Pan02, day 32
  Body weight, Mean: 22.65 g
[1]; Pan02, day 34
  Body weight, Mean: 23.31 g
[1]; Pan02 model
  body weight loss / tolerability: Slight body weight loss
[2]; Pan02, day 0
  tumor volume, Mean: 63.84 mm^3
[2]; Pan02, day 4
  tumor volume, Mean: 80.36 mm^3
[2]; Pan02, day 7
  tumor volume, Mean: 108.77 mm^3
[2]; Pan02, day 11
  tumor volume, Mean: 152.24 mm^3
[2]; Pan02, day 14
  tumor volume, Mean: 250.08 mm^3
[2]; Pan02, day 18
  tumor volume, Mean: 410.18 mm^3
[2]; Pan02, day 21
  tumor volume, Mean: 601.42 mm^3
[2]; Pan02, day 25
  tumor volume, Mean: 735.54 mm^3
[2]; Pan02, day 28
  tumor volume, Mean: 912.95 mm^3
[2]; Pan02, day 32
  tumor volume, Mean: 1316.29 mm^3
[2]; Pan02, day 34
  tumor volume, Mean: 1507.92 mm^3
[2]; Pan02 model, compared with the vehicle group
  anti-tumor response: little anti-tumor response
[3]
  CD4+ Tregs: 25.40%
  CD8+ CD3+ Tcells: 31.62%

## N.N.[Cl][Pt][Cl] [cisplatin]
[4]
  50% growth inhibition (GI50) concentration: 0.4 µg/mL
[5]; LLC-CR cells
  GI50 concentration in resistant clones: ~2 µg/mL
[5]; LLC-CR versus parental LLC
  fold resistance of LLC-CR: 3-5 fold
